Literature values as cited in patent WO2006030898A1, “Aldose reductase inhibitor” (Suntory Ltd, priority 2004, dated 2006).

Target: aldose reductase (Homo sapiens, UniProt P15121)
Conditions: flavonoid glycosides; no own test described

## O=c1c(O[C@@H]2O[C@H](CO)[C@@H](O)[C@H](O)[C@H]2O)c(-c2ccc(O)c(O)c2)oc2cc(O)cc(O)c12 [isoquercitrin]
  aldose reductase inhibitory action (in words): have an aldose reductase inhibitory action
